Laboratory results published in article PMC12024234, “Antioxidant, Anti-Inflammatory, and Oral Bioavailability of Novel Sulfonamide Derivatives of Gallic Acid” (Antioxidants, 2025).
“Also recorded” adds a separate entry of the source. One block for each molecule: values may come before it.

Key:
CYP2D6 [1] = biological target: T1, CYP2D6 (Homo sapiens, UniProt P10635); assay: Metabolism by cytochrome P450 2D6 (CypExpress), HPLC; format: in vitro ADME
T1 construct: purchased Sigma Aldrich C4982

CYP2D6 [2] = biological target: T1, CYP2D6; assay: as above; format: in vitro ADME; details: 4 h
Procedure: The enzymatic activity of cytochrome P450 2D6 (CYP2D6) was evaluated following the CypExpress protocol (C4982, Sigma Aldrich, Darmstadt, Germany). The reaction buffer consisted of 5 mM glucose-6-phosphate (G6P), 2 mM nicotinamide adenine dinucleotide phosphate (NADP+), and 3,4,5-TMBS prepared in PBS at concentrations of 1000 and 1500 µM. Diltiazem was used as a positive control. The reaction was initiated by adding CYP2D6, and the mixture was vortexed for 5 min. The samples were then incubated at 37 °C with gentle shaking at 100 rpm for 4 h. The reaction was terminated by adding acetonitrile, followed by centrifugation at 800 rpm for 10 min. The supernatant was collected and analyzed using HPLC.

[3] = DPPH radical scavenging assay
Procedure: The antioxidant properties of the compounds under study were examined using the 2,2-Diphenyl-1-picrylhydrazyl (DPPH) assay, following a well-established protocol. A DPPH solution was prepared at a concentration of 0.1 mM in methanol. […] To ensure proper reaction, the mixtures were kept in the dark and incubated at room temperature for 30 min. After incubation, the absorbance of each sample was measured at 517 nm using a UV-VIS spectrophotometer. Gallic acid was used as the reference standard, and methanol served as the blank control.
The ability of the compounds to scavenge free radicals was determined by observing the reduction of DPPH at 517 nm, with lower absorbance values indicating higher antioxidant activity. The half-maximal inhibitory concentration (IC50), defined as the concentration of the compound needed to neutralize 50% of the DPPH radicals, was calculated from the dose–response curve. All experiments were performed in triplicate, and the results are reported as the mean of three independent trials. This method is widely recognized for its reliability and reproducibility in evaluating the antioxidant potential of chemical compounds.

COX-2 = biological target: T2, COX-2 (Homo sapiens, UniProt P35354); assay: Cyclooxygenase (COX-2) activity assay in HIEC-6 cell lysate; format: biochemical
T2 construct: endogenous in cells; host or cells: HIEC-6 cell lysate
T2 sequence (P35354 18-604): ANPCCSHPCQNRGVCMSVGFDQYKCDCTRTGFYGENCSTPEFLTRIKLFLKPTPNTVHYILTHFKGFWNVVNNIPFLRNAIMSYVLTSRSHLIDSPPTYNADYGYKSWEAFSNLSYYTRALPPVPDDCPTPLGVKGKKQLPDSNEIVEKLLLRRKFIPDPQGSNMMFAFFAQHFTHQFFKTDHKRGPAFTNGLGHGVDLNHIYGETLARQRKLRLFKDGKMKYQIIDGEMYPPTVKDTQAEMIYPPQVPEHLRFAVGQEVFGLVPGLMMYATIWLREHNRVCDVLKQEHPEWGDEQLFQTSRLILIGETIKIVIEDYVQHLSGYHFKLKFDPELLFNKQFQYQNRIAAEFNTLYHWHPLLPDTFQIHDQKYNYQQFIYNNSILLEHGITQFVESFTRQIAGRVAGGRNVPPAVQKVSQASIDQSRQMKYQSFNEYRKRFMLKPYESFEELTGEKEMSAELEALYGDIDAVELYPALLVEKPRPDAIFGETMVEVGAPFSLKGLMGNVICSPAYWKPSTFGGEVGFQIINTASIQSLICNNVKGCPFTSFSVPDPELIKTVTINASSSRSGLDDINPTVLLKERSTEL
Procedure: Cyclooxygenase (COX-2) activity assay was performed in HIEC-6 cells according to the manufacturer’s instructions (ab204699). Resorufin standards (0–20 pmol/well) were used to generate a calibration curve for quantifying sample concentrations. HIEC-6 cells were centrifuged at 500× g for 3 min and washed with PBS. The cell pellet was lysed in an ice-cold lysis buffer containing 10% Triton X-100 and a protease inhibitor cocktail in PBS for 5 min. The lysate was then centrifuged at 12,000× g for 3 min at 4 °C, and the supernatant was collected and kept on ice. Protein concentration in the supernatant was determined using a Bradford assay, with a bovine serum albumin standard curve (0–2000 µg/mL). […] This mixture was added to a 96-well plate, and the reaction was initiated by adding arachidonic acid (COX-2 substrate) dissolved in NaOH solution. The enzymatic reaction produced fluorescent resorufin dye, which was measured at excitation/emission wavelengths of λEx/Em = 535/587 nm.

[4] = Oral bioavailability / pharmacokinetics in rats; format: in vivo, Sprague Dawley rats; details: rat serum; for Tmax: rat, serum, po
Procedure: Male Sprague Dawley rats, aged 7–9 weeks and weighing 220 ± 20 g on average, were used for bioavailability studies. The animals were housed in the Laboratory Animal Research Unit at the University of Petra Pharmaceutical Center under controlled conditions: a temperature of 23 ± 2 °C, humidity of 55–65%, and a 12 h light/dark cycle. Prior to the experiments, the rats underwent a 10-day acclimatization period with free access to standard food and water. All procedures complied with the University of Petra’s animal use guidelines, which adhere to the standards of the Federation of European Laboratory Animal Sciences Association (FELASA). The rats were divided into three groups (n = 6 per group) and administered suspensions of GA, 3,4,5-TMBS, or 3,4,5-THBS prepared in 5% carboxymethylcellulose. Each compound was administered orally at a dose of 100 mg/kg, based on previous studies. Blood samples were collected from the retro-orbital plexus at 0.5, 1, 2, 3, 4, 6, 10, and 24 h post-administration. The samples were centrifuged at 5000 rpm for 10 min, and the serum was mixed with acetonitrile in a 1:3 ratio. After a second centrifugation at 5000 rpm for 15 min, the supernatant was collected for high-performance liquid chromatography (HPLC) analysis. HPLC analysis was conducted using a Shimadzu Class VP series system equipped with an LC-10AT VP pump, an SIL-10AD VP autosampler, and an SCL-10AVP system (Shimadzu, Kyoto, Japan). A C18 column (25 cm × 4.6 mm, 5 μm) was used, with a photodiode array detector set to a wavelength range of 200–400 nm. The mobile phase for TMBS and THBS consisted of a 50:50 (v/v) mixture of deionized water and acetonitrile containing 0.1% trifluoroacetic acid, flowing at 1 mL/min. For GA, the mobile phase was a 70:30 mixture of methanol and a water/sulfuric acid solution (100:2), also at a flow rate of 1 mL/min. The retention times for THBS and TMBS were 2.39 and 3.47 min, respectively, while GA eluted at 2.4 min, all detected at 254 nm. Results were analyzed using Lab Solution Software LC (version 5.3) and represent the average of three measurements.

HIEC-6 cells = assay: Cell viability CCK-8 assay in HIEC-6; format: cell-based, Human; details: 24 h incubation
Procedure: Human intestinal epithelial cells (HIEC-6), originally obtained from the American Type Culture Collection (ATCC), were cultured in Opti-MEM™ I Reduced Serum Medium (Cat. No. 31985) supplemented with 20 mM HEPES, 10 mM L-glutamine, 10 ng/mL epidermal growth factor, and 4% fetal bovine serum (FBS) (New York, NY, USA). Cells were maintained in a humidified 5% CO2 incubator at 37 °C. Cell viability was assessed using the CCK-8 assay, a colorimetric method based on the reduction of water-soluble tetrazolium salts (WST-8) to a water-soluble formazan dye, with the resulting color intensity proportional to the number of viable cells. Briefly, cells were harvested at approximately 80% confluence, detached using trypsin-EDTA, and centrifuged at 1000 rpm for 5 min. The cell pellet was resuspended in fresh medium, and the density was adjusted to 1 × 10^6 cells/mL. A volume of 100 µL (1 × 10^5 cells/well) was seeded into a 96-well plate, with one well containing the medium only as background control. […] Subsequently, 10 µL of CCK-8 reagent was added to each well, and the plate was incubated for 4 h. Absorbance was measured at 450 nm using a microplate reader, results are expressed as the mean ± standard deviation (SD).

[5] = male, Sprague Dawley, 100 mg/kg, n = 6

T1 sequence (P10635 whole entry): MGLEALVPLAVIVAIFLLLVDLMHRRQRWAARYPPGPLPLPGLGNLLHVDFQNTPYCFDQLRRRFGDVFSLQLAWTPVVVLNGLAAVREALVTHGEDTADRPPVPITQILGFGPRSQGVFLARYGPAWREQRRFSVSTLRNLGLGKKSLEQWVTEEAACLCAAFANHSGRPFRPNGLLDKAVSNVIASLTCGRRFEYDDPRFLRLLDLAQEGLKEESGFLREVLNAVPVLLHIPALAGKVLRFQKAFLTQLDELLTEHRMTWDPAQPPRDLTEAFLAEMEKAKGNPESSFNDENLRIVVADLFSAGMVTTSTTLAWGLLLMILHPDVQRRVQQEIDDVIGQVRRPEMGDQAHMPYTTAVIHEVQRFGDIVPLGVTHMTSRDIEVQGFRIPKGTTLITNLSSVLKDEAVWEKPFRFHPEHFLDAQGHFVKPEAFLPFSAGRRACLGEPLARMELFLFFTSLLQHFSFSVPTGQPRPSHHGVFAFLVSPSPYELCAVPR

Metabolism by CYP2D6 (concentration) (CYP2D6 [1]; 1000 µM, 1 h): 828 ± 21.7 µM
Metabolism by CYP2D6 (concentration) (CYP2D6 [1]; 1000 µM, 3 h): 829 ± 78.1 µM
Metabolism by CYP2D6 (concentration) (CYP2D6 [1]; 1500 µM, 1 h): 1287 ± 12.8 µM
Metabolism by CYP2D6 (concentration) (CYP2D6 [1]; 1500 µM, 3 h): 1460 ± 133 µM
Metabolism by CYP2D6 (concentration) (CYP2D6 [2]; 1000 µM): 849.91 ± 0.62 µM
Metabolism by CYP2D6 (concentration) (CYP2D6 [2]; 1500 µM): 1235 ± 6.02 µM
SMILES: COc1ccc([C@@H]2Sc3ccccc3N(CCN(C)C)C(=O)[C@@H]2OC(C)=O)cc1 [Diltiazem, reference compound]

SMILES: O=C(O)c1cc(O)c(O)c(O)c1 [GA, 3,4,5-trihydroxybenzoic acid, reference compound]
EC50 [3]: ~30 µM
DPPH radical scavenging activity ([3]; at 1000 µM): exceeding 90%
ROS scavenging activity ([3]; at 1000 µM (abstract)): 96%
COX-2 inhibition compared to ibuprofen (COX-2; 1 µM): weaker COX-2 inhibition than ibuprofen
COX-2 inhibition compared to ibuprofen (COX-2; 50 µM): low COX-2 inhibition effect; also recorded: weaker COX-2 inhibition than ibuprofen
Cmax ([4]; male, Sprague Dawley, 100 mg/kg (table: 100 mg dose), n = 6): 2140 ± 880 ng/mL
AUC(0-inf) [4, 5]: 13000 ± 5620 ng·h/mL
AUC(0-t) [4, 5]: 9320 ± 4610 ng·h/mL
CL/F [4, 5]: 148 mL/min/kg
half-life [4, 5]: 3.6 ± 0.94 h
MRT inf ([4]; male, Sprague Dawley, 100 mg/kg, n = 6, read-out: MRT0–∞): 7.66 ± 2.99 h
Tmax ([4]; male, Sprague Dawley, 100 mg/kg): 1.3 h
Tmax [4, 5]: 1.3 ± 0.22 h
Vz ([4]; 100 mg/kg, n = 6): 55.46 ± 23.99 (mg)/(μg/mL)
IC50 (HIEC-6 cells): 47.6 ± 2.39 µM
IC50 (HIEC-6 cells; Homo sapiens, HIEC-6, 24 h): ~47 µM
